Five compounds from PubChem BioAssay (NCI) can be followed below.

Holding throughout (assay): NCI tumour cell line growth inhibition, 48 h
The test system of assay [1] is DU-145 prostate.
The test system of assay [2] is HCT-15 colon.
In assay [3] the test system is HOP-62 NSCLC.
In assay [4] the test system is HL-60(TB) leukemia.
The test system of assay [5] is MCF7 breast.
In assay [6] the test system is CCRF-CEM leukemia.
Assay [7] relates to HS 578T breast.
Assay [8] relates to RPMI-8226 leukemia.
Assay [9] has as its system A498 renal.
For assay [10], the system named is UO-31 renal.

Where “and” joins values, the source holds several entries; their conditions need not be identical. Identical values can stand only once.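 The compound was tested at five concentrations on cells cultured in 96-well plates, with a 48-hour exposure period. GI50 is the concentration that inhibits growth by half. TGI denotes the concentration required for complete inhibition of growth.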 Bounds are passed on as bounds.

As for `O=C1NC(=N[C@H](CO)c2ccccc2)S/C1=C\c1ccc2ncccc2c1`, the GI50 is 3.3 µM in [1]; 5.2 µM in assay [2]; 6.73 µM in assay [3]; 4.19 µM in assay [4]; 4.57 µM in assay [5]; 4.63 µM in assay [6]. The GI50 in assay [7] is 3.49 µM; in assay [8], 3.73 µM; in assay [9], 2.07 µM; in assay [10], 4.61 µM. Further, the TGI was more than 21.3 µM in assay [1]; more than 25 µM in assay [2]; more than 25 µM in [3]; 16.7 µM in [4]; more than 25 µM in assay [5]; 16.7 µM in [6]. Besides, the TGI was more than 13.8 µM in assay [7], 10.9 µM in [8], 7.13 µM in assay [9] and 13.8 µM in assay [10].
In the case of `CS(=O)(=O)N1CCc2c(-c3cnc(N)nc3)nc(N3CCOCC3)nc21`, the GI50 is 0.632 µM and 0.503 µM in [1]; 0.397 µM and 0.419 µM in assay [2]; 1.26 µM and 0.795 µM in [3]; 0.415 µM in assay [4]; 0.0961 µM and 0.05 µM in [5]; 0.658 µM and 1.23 µM in [6]. The GI50 in assay [7] is 0.324 µM and 0.222 µM; in assay [8], 1.52 µM and 2.5 µM; in [9] it was 0.203 µM and 0.101 µM; in [10] it was 0.18 µM and 0.136 µM. Besides, the TGI is more than 45.9 µM in [1]; more than 100 µM in assay [2]; > 10 µM and 11.8 µM in assay [3]; more than 100 µM in assay [4]; more than 76.1 µM in [5]; more than 100 µM in assay [6]. Besides, the TGI is 3.3 µM and 1.86 µM in [7]; more than 100 µM in assay [8]; 0.836 µM and 0.447 µM in assay [9]; 3.14 µM and 3.03 µM in assay [10].
For the compound `O=C1NC(=O)C(c2c[nH]c3ccccc23)=C1c1ccccc1`, the GI50 in assay [1], in assay [2], in [3], in assay [4], in [5] and in [6] was more than 25 µM each time. Further, the GI50 in assay [7] was more than 25 µM; in assay [8], more than 25 µM; in assay [9], more than 17.6 µM; in assay [10], more than 24 µM. Besides, the TGI in assay [1], in assay [2], in [3], in [4], in assay [5] and in assay [6] was more than 25 µM in each case. Also, the TGI in assay [7], in assay [8], in assay [9] and in assay [10] was more than 25 µM in each case.
In the case of `COC(=O)[C@]12CC[C@@H](C)[C@H](C)[C@@H]1C1=CC[C@@H]3[C@@]4(C)CC(=O)[C@H](O)[C@@](C)(CO)[C@@H]4C(=O)C[C@@]3(C)[C@]1(C)CC2`, the GI50 was 11.2 µM in [1]; 9.37 µM in assay [2]; 13.3 µM in assay [3]; 9.21 µM in assay [4]; 12.1 µM in assay [5]; 3.38 µM in assay [6]. For the same compound, the GI50 in [7] is 7.98 µM; in assay [8], 0.53 µM; in assay [9], 19.4 µM; in assay [10] it was 5.7 µM. Also, the TGI is 23.6 µM in assay [1]; 23.3 µM in assay [2]; 27.4 µM in [3]; 28.4 µM in [4]; 27.5 µM in assay [5]; 28.7 µM in assay [6]. In addition, the TGI worked out at 30.4 µM in assay [7], 19.4 µM in assay [8], 33.9 µM in assay [9] and 23.4 µM in [10].
With `COc1ccc2c(c1)N(CCO)C1=C(C(=O)OC1)C2c1ccc(OC)c(OC)c1` (stereo not given), the GI50 was 3.01 µM in [1]; 3.09 µM in [2]; 4.89 µM in assay [3]; 2.04 µM in [4]; 2.67 µM in [5]; 3.99 µM in [6]. Further, the GI50 in assay [7] was 2.88 µM; in [8] it was 3.78 µM; in assay [9] it was 1.56 µM; in [10] it was 4.65 µM. Besides, the TGI in assay [1] is 9.38 µM; in [2], more than 100 µM; in assay [3] it was more than 100 µM; in assay [4], 5.51 µM; in [5] it was more than 100 µM; in assay [6], more than 100 µM. The TGI was 9.82 µM in [7], more than 100 µM in assay [8], 5.93 µM in assay [9] and more than 100 µM in assay [10].
